Reference: ChEMBL document CHEMBL5576125, “Discovery of Pyrazolopyrazines as Selective, Potent, and Mutant-Active MET Inhibitors with Intracranial Efficacy” (J Med Chem, 2024)
Values belong to the compound of their own block, whether it stands above or below them. Activity calls are given as the source filed them. No cut-off for these calls is given here.

Columns and labels:
[1] = target: T1, Hepatocyte growth factor receptor (Homo sapiens, UniProt P08581, D1228N); assay: Displacement of tracer 236 from N-terminal GST-tagged recombinant human MET D1228N mutant (956 to end residues) expressed in Sf9 insect cells incubated for 1 hr by TR-FRET assay
[2] = Displacement of tracer 236 from N-terminal GST-tagged recombinant human MET exon 14 deletion mutant (956 to end residues) expressed in Sf9 insect cells incubated for 1 hr by TR-FRET assay
[3] = target: Hepatocyte growth factor receptor (Homo sapiens, UniProt P08581, F1200I); assay: Displacement of tracer 236 from N-terminal GST-tagged recombinant human MET F1200I mutant (956 to end residues) expressed in Sf9 insect cells incubated for 1 hr by TR-FRET assay
[4] = Displacement of tracer 236 from N-terminal GST-tagged recombinant human MET […] mutant (956 to end residues) expressed in Sf9 insect cells incubated for 1 hr by TR-FRET assay
[5] = target: Hepatocyte growth factor receptor (Homo sapiens, UniProt P08581, Y1230H); assay: Displacement of tracer 236 from N-terminal GST-tagged recombinant human MET Y1230H mutant (956 to end residues) expressed in Sf9 insect cells incubated for 1 hr by TR-FRET assay
[6] = target: T1, Hepatocyte growth factor receptor; assay: Inhibition of MET D1228N mutant (unknown origin) transfected in mouse NIH3T3 cells incubated for 1 hr by In-Cell Western assay; type: cell-based
[7] = Apparent permeability across apical to basolateral side in MDCKII-MDR1 cells at 1 uM incubated for 2 hrs in orbital shaker by LC-MS/MS analysis; type: ADME, cell-based, Canis lupus familiaris; details: dog, MDCK-MDR1
[8] = Metabolic stability in human hepatocytes assessed as clearance at 2 uM measured upto 120 mins by LC-MS/MS analysis; type: ADME, cell-based, Hepatocyte
[9] = Metabolic stability in mouse hepatocytes assessed as clearance at 2 uM measured upto 120 mins by LC-MS/MS analysis; type: ADME, cell-based, Hepatocyte
[10] = Efflux ratio of apparent permeability across basolateral to apical over apical to basolateral side in MDCKII-MDR1 cells at 1 uM incubated for 2 hrs in orbital shaker by LC-MS/MS analysis; type: ADME, cell-based, Canis lupus familiaris; details: dog, MDCK-MDR1
[11] = target: T2, Vascular endothelial growth factor receptor 2 (Homo sapiens, UniProt P35968); assay: Inhibition of VEGFR-2 (unknown origin) by cell based assay; type: toxicity
[12] = target: Macrophage-stimulating protein receptor (Homo sapiens) (UniProt Q04912); assay: Inhibition of human RON incubated for 5 mins in presence of ATP by chelation-enhanced fluorescence based Beckman Coulter analysis relative to control
[13] = Clearance in female athymic nude Foxn1nu mouse at 1 mg/kg, iv administered as single dose and measured after 24 hrs by LC/MS analysis; type: ADME, organism-based; details: in vivo
[14] = Hepatic extraction ratio in female athymic nude Foxn1nu mouse at 1 mg/kg, iv administered as single dose and measured after 24 hrs by LC/MS analysis; type: ADME, organism-based; details: in vivo, read-out: ERH
[15] = Half life in female athymic nude Foxn1nu mouse at 1 mg/kg, iv administered as single dose and measured after 24 hrs by LC/MS analysis; type: ADME, organism-based; details: in vivo
[16] = Volume of distribution at steady state in female athymic nude Foxn1nu mouse at 1 mg/kg, iv administered as single dose and measured after 24 hrs by LC/MS analysis; type: ADME, organism-based; details: in vivo, read-out: Vdss
[17] = Cmax in female athymic nude Foxn1nu mouse plasma at 30 mg/kg, po administered as single dose and measured after 24 hrs by LC/MS analysis; type: ADME, organism-based
[18] = Cmax in female athymic nude Foxn1nu mouse brain at 30 mg/kg, po administered as single dose and measured after 24 hrs by LC/MS analysis; type: ADME, organism-based; details: in vivo
[19] = Tmax in female athymic nude Foxn1nu mouse at 30 mg/kg, po administered as single dose and measured after 24 hrs by LC/MS analysis; type: ADME, organism-based; details: in vivo
[20] = AUCinfinity in female athymic nude Foxn1nu mouse at 30 mg/kg, po administered as single dose and measured after 24 hrs by LC/MS analysis; type: ADME, organism-based; details: in vivo
[21] = Ratio of unbound drug concentration in female athymic nude Foxn1nu mouse brain to plasma at 30 mg/kg, po administered as single dose and measured after 24 hrs by LC/MS analysis; type: ADME, organism-based; details: read-out: K(p,uu,brain)
Cytochrome P450 = assay: Inhibition of CYP450 (unknown origin); type: ADME, protein assay; details: human
[22] = In vivo inhibition of MET in female athymic nude Foxn1nu mouse implanted with mouse NIH3T3 cells expressing luciferase and human MET exon 14 deletion construct with MET-D1228N Type I resistance mutation assessed as reduction in phospho-MET protein level in tumor by measuring residual activity at 30 to 100 mg/kg, po administered as single dose measured after 12 hrs by ELISA relative to control; type: functional; details: dose 30-100 mg/kg
Mus musculus = assay: In vivo inhibition of MET in female athymic nude Foxn1nu mouse xenografted with human Hs746T cells expressing MET exon 14 skipping mutation with MET amplification assessed as reduction in phospho-MET protein level in tumor at 3 to 100 mg/kg, po administered as single dose measured after 2 to 8 hrs by ELISA relative to control; type: functional, organism-based; details: dose 3-100 mg/kg, time 2-8 hrs
NIH3T3 [23] = assay: (§1) Antitumor activity against mouse NIH3T3 cells expressing luciferase and human MET exon 14 deletion construct with MET-D1228N Type I resistance mutation implanted in female athymic nude Foxn1nu mouse assessed as reduction in tumor burden at 30 mg/kg, po bid measured after 29 days by luminescent imaging based analysis; type: functional, organism-based; details: time 29.0 day
NIH3T3 [24] = assay: as §1, with “100” for “30”, “qd” for “bid”; type: functional, organism-based; details: time 29.0 day
NIH3T3 [25] = assay: as §1, with “median survival time” for “reduction in tumor burden”, “(reference value: 15.5 day)” for “by luminescent imaging based analysis”; type: functional; details: time 29 day
NIH3T3 [26] = assay: Antitumor activity against mouse NIH3T3 cells expressing luciferase and human MET exon 14 deletion construct with MET-D1228N Type I resistance mutation implanted in female athymic nude Foxn1nu mouse assessed as animal survival rate at 100 mg/kg, po qd measured until 80 days relative to control; type: functional; details: NIH3T3, 1920 h, time 80 day
Hs746T [27] = assay: Antitumor activity against human Hs746T cells expressing MET exon 14 skipping mutation with MET amplification xenografted in female athymic nude Foxn1nu mouse at 3 to 30 mg/kg, po bid administered for 14 days; type: functional, organism-based; details: dose 3-30 mg/kg, time 14.0 day
Hs746T [28] = assay: Antitumor activity against human Hs746T cells expressing MET exon 14 skipping mutation with MET amplification xenografted in female athymic nude Foxn1nu mouse at 100 mg/kg, po qd administered for 14 days; type: functional, organism-based; details: time 14.0 day
[29] = Ratio of unbound drug concentration in female athymic nude Foxn1nu mouse brain to plasma at 100 mg/kg, po administered as single dose and measured after 24 hrs by LC/MS analysis; type: ADME, organism-based; details: read-out: K(p,uu,brain)
[30] = target: T2, Vascular endothelial growth factor receptor 2; assay: Inhibition of VEGFR2 in human Flp-In-293 cells by ELISA; type: toxicity, cell-based

T1 sequence (P08581 25-1390 D1228N limits assumed): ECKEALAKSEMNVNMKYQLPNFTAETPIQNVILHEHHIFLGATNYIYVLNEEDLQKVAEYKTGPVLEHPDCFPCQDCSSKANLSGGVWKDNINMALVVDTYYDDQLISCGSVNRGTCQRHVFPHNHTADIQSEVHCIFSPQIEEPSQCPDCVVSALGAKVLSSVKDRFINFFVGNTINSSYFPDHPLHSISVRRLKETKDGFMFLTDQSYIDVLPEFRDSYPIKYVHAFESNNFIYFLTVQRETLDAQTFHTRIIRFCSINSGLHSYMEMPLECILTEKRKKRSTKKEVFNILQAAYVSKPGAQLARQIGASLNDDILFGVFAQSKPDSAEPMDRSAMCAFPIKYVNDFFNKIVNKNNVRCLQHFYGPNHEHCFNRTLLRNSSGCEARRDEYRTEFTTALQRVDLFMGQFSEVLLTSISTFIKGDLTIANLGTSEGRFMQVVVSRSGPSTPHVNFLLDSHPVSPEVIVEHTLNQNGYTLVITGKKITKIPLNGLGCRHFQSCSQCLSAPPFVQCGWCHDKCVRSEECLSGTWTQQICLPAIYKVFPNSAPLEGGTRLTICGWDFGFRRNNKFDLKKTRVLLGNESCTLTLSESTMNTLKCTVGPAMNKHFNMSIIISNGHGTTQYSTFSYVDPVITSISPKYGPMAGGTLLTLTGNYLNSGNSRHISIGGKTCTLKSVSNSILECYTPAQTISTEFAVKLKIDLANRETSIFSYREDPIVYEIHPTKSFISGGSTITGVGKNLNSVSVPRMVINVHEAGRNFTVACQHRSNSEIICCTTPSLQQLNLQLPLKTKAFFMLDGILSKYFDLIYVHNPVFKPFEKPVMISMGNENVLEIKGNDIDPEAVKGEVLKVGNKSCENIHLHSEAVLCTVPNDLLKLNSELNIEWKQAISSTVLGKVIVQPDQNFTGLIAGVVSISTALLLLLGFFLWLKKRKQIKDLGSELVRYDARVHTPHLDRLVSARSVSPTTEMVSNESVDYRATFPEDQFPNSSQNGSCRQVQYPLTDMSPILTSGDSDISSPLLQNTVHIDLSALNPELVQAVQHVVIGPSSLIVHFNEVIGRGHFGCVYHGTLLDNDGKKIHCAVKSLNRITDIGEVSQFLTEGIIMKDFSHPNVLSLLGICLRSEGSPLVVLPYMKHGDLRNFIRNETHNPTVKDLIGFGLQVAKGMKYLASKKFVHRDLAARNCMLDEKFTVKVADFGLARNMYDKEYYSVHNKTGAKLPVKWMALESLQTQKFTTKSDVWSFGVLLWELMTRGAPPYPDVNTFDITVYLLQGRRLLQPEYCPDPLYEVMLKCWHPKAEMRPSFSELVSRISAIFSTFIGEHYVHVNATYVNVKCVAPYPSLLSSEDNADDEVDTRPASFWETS
Chain of Hepatocyte growth factor receptor (Homo sapiens, UniProt P08581, Y1230H) (P08581 25-1390 Y1230H limits assumed): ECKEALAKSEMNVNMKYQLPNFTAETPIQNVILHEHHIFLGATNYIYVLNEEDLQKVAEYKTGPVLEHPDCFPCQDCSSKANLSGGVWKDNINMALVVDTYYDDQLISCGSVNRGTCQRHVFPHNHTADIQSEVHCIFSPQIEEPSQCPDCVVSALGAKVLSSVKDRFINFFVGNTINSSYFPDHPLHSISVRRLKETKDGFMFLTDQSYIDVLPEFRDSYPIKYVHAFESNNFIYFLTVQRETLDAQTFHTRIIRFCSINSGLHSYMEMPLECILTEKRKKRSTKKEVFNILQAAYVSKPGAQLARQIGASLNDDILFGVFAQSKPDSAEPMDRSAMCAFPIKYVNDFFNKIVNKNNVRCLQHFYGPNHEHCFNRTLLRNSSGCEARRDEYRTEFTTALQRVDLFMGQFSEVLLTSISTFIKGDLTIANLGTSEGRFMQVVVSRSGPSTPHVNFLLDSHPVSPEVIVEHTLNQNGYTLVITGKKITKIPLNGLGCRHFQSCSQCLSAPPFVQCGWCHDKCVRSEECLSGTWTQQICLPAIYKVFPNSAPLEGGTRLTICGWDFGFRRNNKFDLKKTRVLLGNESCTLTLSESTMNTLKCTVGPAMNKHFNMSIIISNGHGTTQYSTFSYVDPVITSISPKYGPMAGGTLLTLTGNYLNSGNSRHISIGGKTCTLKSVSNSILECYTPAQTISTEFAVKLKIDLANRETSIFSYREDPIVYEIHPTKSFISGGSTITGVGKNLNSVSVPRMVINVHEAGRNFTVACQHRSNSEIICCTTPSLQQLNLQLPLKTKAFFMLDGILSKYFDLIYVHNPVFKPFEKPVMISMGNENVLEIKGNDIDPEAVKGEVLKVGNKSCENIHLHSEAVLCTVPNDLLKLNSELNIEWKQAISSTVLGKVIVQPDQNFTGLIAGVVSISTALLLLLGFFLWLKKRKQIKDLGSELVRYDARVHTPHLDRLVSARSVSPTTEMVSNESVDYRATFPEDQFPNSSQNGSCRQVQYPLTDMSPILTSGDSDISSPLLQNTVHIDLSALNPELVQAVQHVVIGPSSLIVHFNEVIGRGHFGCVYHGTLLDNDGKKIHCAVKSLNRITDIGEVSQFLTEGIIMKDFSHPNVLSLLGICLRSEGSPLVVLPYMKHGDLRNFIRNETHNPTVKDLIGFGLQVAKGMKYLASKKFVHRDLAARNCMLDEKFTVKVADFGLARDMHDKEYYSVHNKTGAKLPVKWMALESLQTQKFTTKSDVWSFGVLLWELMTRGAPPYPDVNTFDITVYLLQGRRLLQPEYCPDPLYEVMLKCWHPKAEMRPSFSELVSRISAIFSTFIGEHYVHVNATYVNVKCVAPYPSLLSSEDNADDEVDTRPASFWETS
T2 sequence (P35968 whole entry): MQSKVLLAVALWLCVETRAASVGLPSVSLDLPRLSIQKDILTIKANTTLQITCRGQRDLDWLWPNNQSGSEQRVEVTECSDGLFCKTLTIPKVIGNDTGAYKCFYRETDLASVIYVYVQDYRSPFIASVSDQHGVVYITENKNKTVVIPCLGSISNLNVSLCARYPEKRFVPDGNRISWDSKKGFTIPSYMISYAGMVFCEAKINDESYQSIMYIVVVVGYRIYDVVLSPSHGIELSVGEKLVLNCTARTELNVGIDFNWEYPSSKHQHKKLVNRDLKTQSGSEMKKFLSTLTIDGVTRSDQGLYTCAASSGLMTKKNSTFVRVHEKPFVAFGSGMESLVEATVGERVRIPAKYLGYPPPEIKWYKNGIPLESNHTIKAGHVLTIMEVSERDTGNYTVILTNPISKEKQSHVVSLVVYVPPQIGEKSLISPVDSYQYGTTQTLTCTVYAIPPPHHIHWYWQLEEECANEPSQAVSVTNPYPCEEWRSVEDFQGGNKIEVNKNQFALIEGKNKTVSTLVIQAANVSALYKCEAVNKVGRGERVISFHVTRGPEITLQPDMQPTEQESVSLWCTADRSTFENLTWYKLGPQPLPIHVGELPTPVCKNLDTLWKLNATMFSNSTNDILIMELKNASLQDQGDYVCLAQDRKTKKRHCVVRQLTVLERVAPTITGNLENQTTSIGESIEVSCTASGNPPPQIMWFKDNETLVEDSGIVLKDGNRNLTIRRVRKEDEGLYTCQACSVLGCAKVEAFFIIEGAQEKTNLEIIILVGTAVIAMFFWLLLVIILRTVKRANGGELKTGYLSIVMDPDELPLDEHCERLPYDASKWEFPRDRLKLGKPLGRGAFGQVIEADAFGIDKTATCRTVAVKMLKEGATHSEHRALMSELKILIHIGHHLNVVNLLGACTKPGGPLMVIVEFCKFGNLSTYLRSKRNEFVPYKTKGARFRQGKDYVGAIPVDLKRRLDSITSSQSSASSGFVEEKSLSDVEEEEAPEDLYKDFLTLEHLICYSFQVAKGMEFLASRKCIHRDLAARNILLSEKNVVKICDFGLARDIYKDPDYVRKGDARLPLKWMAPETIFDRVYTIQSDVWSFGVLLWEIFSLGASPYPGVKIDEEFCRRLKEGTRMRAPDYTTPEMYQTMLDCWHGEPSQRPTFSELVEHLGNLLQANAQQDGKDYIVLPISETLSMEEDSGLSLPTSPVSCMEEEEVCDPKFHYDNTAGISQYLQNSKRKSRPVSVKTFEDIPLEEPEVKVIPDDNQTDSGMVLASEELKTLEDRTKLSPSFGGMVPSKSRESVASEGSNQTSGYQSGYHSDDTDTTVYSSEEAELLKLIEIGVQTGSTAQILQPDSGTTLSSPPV

IC50 [1]: 64 nM
IC50 [3]: 622 nM
IC50 [5]: 38 nM
IC50 [6]: 198 nM
Compound: CCN(c1cc(F)c(NC(=O)c2ccnn(-c3ccc(F)cc3)c2=O)cc1F)c1cccn2nccc12
IC50 [2]: 36 nM
IC50 [4]: 172 nM

IC50 [1]: 4 nM
IC50 [3]: 58 nM
IC50 [5]: 2 nM
IC50 [6]: 25 nM
Compound: Cn1ccc(CCN(c2cc(F)c(NC(=O)c3ccnn(-c4ccc(F)cn4)c3=O)cc2F)c2cccn3nccc23)n1
IC50 [4]: 19 nM

IC50 [1]: 21 nM
IC50 [3]: 479 nM
IC50 [5]: 13 nM
IC50 [6]: 97 nM
Papp A→B at 2 h, 1 µM [7]: 6 ×10⁻⁶ cm/s
CLhep predicted at 2 µM [8]: 5 mL/min/kg
CLhep predicted at 2 µM [9]: 9 mL/min/kg
efflux ratio at 2 h, 1 µM [10]: 1
Compound: Cn1ccc([C@H]2C[C@H](N(c3cc(Cl)c(NC(=O)c4ccnn(-c5ccc(F)cn5)c4=O)cc3F)c3nccn4nccc34)C2)n1
IC50 [2]: 12 nM
IC50 [4]: 125 nM

IC50 [1]: 5 nM
IC50 [3]: 96 nM
IC50 [5]: 2 nM
IC50 [6]: 57 nM
Compound: CC(C)(C#N)CN(c1cc(F)c(NC(=O)c2ccnn(-c3ccc(F)cn3)c2=O)cc1F)c1cccn2nccc12
IC50 [2]: 3 nM
IC50 [4]: 39 nM

IC50 [1]: 8 nM
IC50 [3]: 326 nM
IC50 [5]: 7 nM
IC50 [6]: 25 nM
Compound: CC(C)(C#N)CN(c1cc(F)c(NC(=O)c2ccnn(-c3ccc(F)cc3)c2=O)cc1F)c1cccn2nccc12
IC50 [4]: 53 nM

Compound: COCCNCc1ccc(-c2cc3nccc(Oc4ccc(NC(=S)NC(=O)Cc5ccc(F)cc5)cc4F)c3s2)nc1 [GLESATINIB]
IC50 [11]: 172 nM

Compound: Cn1ccc([C@H]2C[C@H](N(c3cc(F)c(NC(=O)c4ccnn(-c5ccc(F)cn5)c4=O)cc3F)c3nccn4nccc34)C2)n1
IC50 [1]: 6 nM
IC50 [2]: 6 nM
IC50 [3]: 90 nM
IC50 [4]: 15 nM
IC50 [5]: 5 nM
IC50 [6]: 23 nM
Papp A→B at 2 h, 1 µM [7]: 8 ×10⁻⁶ cm/s
CLhep predicted at 2 µM [8]: 13 mL/min/kg
CLhep predicted at 2 µM [9]: 35 mL/min/kg
efflux ratio at 2 h, 1 µM [10]: 1.1
inhibition [12]: > 50%
clearance [13]: 9.5 mL/min/kg
hepatic extraction ratio at 24 h [14]: 0.106
half-life [15]: 114 min
Vd [16]: 1.3 L/kg
Cmax [17]: 10500 ng/mL
Cmax [18]: 0.9 µg/mL
Tmax [19]: 2 h
AUC(0-inf) [20]: 113 µg·h/mL
Kp uu at 24 h [21]: 0.11
inhibition (INH) (Cytochrome P450): Not Active
Activity [22]: <6%
inhibition (Mus musculus): Active
Activity (NIH3T3 [23]): Active
Activity (NIH3T3 [24]): Active
MST (NIH3T3 [25]): 33 days
survival at 100 mg/kg (NIH3T3 [26]): 100%
Activity (Hs746T [27]): Active
Activity (Hs746T [28]): Active
Kp uu at 24 h [29]: 0.24
IC50 [30]: > 5 µM

IC50 [1]: 11 nM
IC50 [3]: 54 nM
IC50 [5]: 17 nM
IC50 [6]: 22 nM
CLhep predicted at 2 µM [8]: 12 mL/min/kg
CLhep predicted at 2 µM [9]: 38 mL/min/kg
Compound: COc1cc(N(c2cc(F)c(NC(=O)c3ccnn(-c4ccc(F)cn4)c3=O)cc2F)[C@H]2C[C@H](c3ccn(C)n3)C2)c2ccnn2c1
IC50 [2]: 16 nM
IC50 [4]: 32 nM

IC50 [1]: 9 nM
IC50 [3]: 147 nM
IC50 [5]: 7 nM
IC50 [6]: 28 nM
Papp A→B at 2 h, 1 µM [7]: 5 ×10⁻⁶ cm/s
CLhep predicted at 2 µM [8]: 9 mL/min/kg
CLhep predicted at 2 µM [9]: 31 mL/min/kg
Compound: Cn1ccc([C@H]2C[C@H](N(c3cc(F)c(NC(=O)c4ccnn(-c5ccc(F)cn5)c4=O)cc3Cl)c3nccn4nccc34)C2)n1
IC50 [2]: 6 nM
IC50 [4]: 36 nM

IC50 [1]: 165 nM
IC50 [3]: 5000 nM
IC50 [5]: 84 nM
IC50 [6]: 1680 nM
Compound: O=C(Nc1cc(F)c(Oc2cccn3nccc23)cc1F)c1ccnn(-c2ccc(F)cc2)c1=O
IC50 [2]: 27 nM
IC50 [4]: 717 nM
